In one assay the target is T1, human MER (528-end) (Homo sapiens, UniProt Q12866).
T1 construct: human MER (528-end); purchased Carnabio, Japan
T1 sequence (Q12866 528-999 limits assumed): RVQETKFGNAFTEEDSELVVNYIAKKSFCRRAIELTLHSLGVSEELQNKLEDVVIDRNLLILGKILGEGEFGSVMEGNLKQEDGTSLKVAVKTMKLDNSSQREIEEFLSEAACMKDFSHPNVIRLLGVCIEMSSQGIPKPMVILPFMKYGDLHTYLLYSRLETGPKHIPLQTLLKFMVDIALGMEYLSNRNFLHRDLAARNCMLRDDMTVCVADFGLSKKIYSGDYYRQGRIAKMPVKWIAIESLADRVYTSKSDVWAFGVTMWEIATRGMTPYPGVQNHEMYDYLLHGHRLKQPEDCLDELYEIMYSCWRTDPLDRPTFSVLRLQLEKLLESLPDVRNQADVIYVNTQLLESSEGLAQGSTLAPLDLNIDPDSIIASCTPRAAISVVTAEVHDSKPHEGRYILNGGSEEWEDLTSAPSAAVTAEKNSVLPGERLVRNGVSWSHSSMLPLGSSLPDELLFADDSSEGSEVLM
Kind of assay: HTRF kinase activity biochemical assay, MER.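 Also: phosphorylation of a biotin-tagged tyrosine kinase substrate detected by Eu3+-cryptate antibody and streptavidin-XL665 time-resolved fluorescence, read after 1 h at room temperature.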 Particulars: recombinant kinase, 10 uM ATP, 30 minutes pre-incubation; read-out: HTRF MERTK IC50.

For the next assay, the target named is T2, human AXL (473-end) (Homo sapiens, UniProt P30530).
T2 construct: human AXL (473-end); purchased SignalChem, Canada
T2 sequence (P30530 473-894 limits assumed): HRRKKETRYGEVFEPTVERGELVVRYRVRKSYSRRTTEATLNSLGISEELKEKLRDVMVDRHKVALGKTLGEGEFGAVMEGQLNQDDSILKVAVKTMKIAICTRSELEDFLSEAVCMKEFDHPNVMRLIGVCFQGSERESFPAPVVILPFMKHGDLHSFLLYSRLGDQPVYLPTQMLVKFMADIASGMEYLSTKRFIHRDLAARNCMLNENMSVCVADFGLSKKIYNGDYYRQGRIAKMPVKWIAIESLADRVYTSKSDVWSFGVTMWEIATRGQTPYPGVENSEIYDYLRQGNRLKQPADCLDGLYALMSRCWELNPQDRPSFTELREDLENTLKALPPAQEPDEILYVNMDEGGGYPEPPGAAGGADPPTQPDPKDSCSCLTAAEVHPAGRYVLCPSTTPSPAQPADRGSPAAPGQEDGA
Description: HTRF kinase activity biochemical assay, AXL.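 Also: phosphorylation of a biotinylated tyrosine kinase substrate detected via Eu3+-cryptate anti-TK antibody and streptavidin-XL665, fluorescence read after a 1 h incubation at room temperature.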 To be noted: recombinant kinase, 10 uM ATP, 30 minutes pre-incubation; read-out: HTRF AXL IC50.

The target in a further assay is T3, TYRO3 (455-end) (Homo sapiens, UniProt Q06418).
T3 construct: TYRO3 (455-end); purchased SignalChem, Canada
T3 sequence (Q06418 455-890 limits assumed): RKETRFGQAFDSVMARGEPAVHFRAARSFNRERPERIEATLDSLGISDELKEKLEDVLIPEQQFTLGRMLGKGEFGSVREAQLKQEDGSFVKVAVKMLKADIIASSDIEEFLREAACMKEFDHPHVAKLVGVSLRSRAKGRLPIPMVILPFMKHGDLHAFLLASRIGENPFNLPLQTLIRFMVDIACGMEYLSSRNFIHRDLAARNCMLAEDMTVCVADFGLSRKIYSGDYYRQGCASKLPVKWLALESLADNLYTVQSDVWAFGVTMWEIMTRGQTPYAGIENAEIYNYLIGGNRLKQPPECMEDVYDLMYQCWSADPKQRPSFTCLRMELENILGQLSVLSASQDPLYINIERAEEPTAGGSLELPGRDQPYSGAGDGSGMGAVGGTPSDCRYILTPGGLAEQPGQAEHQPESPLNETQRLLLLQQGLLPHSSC
Description: HTRF kinase activity biochemical assay, TYRO3.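 Also: biotinylated tyrosine kinase substrate phosphorylation detected via streptavidin-XL665 and Eu3+-cryptate anti-phospho antibody time-resolved fluorescence, read after 1 h detection at room temperature, 384-well format.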 To be noted: recombinant kinase, 10 uM ATP, 30 minutes pre-incubation; read-out: HTRF TYRO IC50.

On to `Cn1cc(Nc2ncc(C3CN(c4nc5ccc(CC(=O)N6CCC[C@H]6CO)cc5o4)C3)nc2C(N)=O)cn1` [Example 66, 6-[1-(6-{2-[(2S)-2-(hydroxymethyl)pyrrolidin-1-yl]-2-oxoethyl}-1,3-benzoxazol-2-yl)azetidin-3-yl]-3-[(1-methyl-1H-pyrazol-4-yl)amino]pyrazine-2-carboxamide], for which the results for the IC50 at human MER (528-end), on human AXL (473-end) and on TYRO3 (455-end) were 2 nM, 3 nM and 2900 nM, respectively.

As for `Cn1cc(Nc2ncc(C3CN(c4nc5ccc(OCCC(C)(C)OC(=O)CNC(=O)OC(C)(C)C)cc5o4)C3)nc2C(N)=O)cn1` [Example 95A, 4-{[2-(3-f{6-carbamoyl-5-[(1-methyl-1H-pyrazol-4-yl)amino]pyrazin-2-yl}azetidin-1-yl)-1,3-benzoxazol-6-yl]oxy}-2-methylbutan-2-yl [(tert-butoxycarbonyl)amino]acetate], the IC50 at human MER (528-end) is less than 1 nM; on human AXL (473-end) it was 3 nM; at TYRO3 (455-end), 460 nM.

With `Cn1cc(Nc2ncc(C3CN(c4nc5ccc(-c6ccc(O)cc6)cc5o4)C3)nc2C(N)=O)cn1` [Example 88, 6-{1-[6-(4-hydroxyphenyl)-1,3-benzoxazol-2-yl]azetidin-3-yl}-3-[(1-methyl-1H-pyrazol-4-yl)amino]pyrazine-2-carboxamide], the figures for the IC50 at human MER (528-end), at human AXL (473-end) and at TYRO3 (455-end) were less than 1 nM, 3 nM and 51 nM, respectively.

As for `COC[C@H]1CCCN1C(=O)c1ccc2nc(N3CC(c4cnc(Nc5cnn(C)c5)c(C(N)=O)n4)C3)oc2c1` [Example 64, 6-(1-{6-[(2R)-2-(methoxymethyl)pyrrolidine-1-carbonyl]-1,3-benzoxazol-2-yl}azetidin-3-yl)-3-[(1-methyl-1H-pyrazol-4-yl)amino]pyrazine-2-carboxamide], the IC50 was less than 1 nM at human MER (528-end), 5 nM on human AXL (473-end) and 37 nM at TYRO3 (455-end).

Turning to `COCCOc1ccc(-c2ccc3nc(N4CC(c5cnc(Nc6cnn(C)c6)c(C(N)=O)n5)C4)oc3c2)cc1` [Example 100, 6-(1-{6-[4-(2-methoxyethoxy)phenyl]-1,3-benzoxazol-2-yl}azetidin-3-yl)-3-[(1-methyl-1H-pyrazol-4-yl)amino]pyrazine-2-carboxamide], the IC50 at human MER (528-end) was determined as 1 nM; on human AXL (473-end) it was 4 nM; at TYRO3 (455-end), 120 nM.

Regarding `Cn1cc(Nc2ncc(C3CN(c4nc5ccc(OCC6COC(C)(C)OC6)cc5o4)C3)nc2C(N)=O)cn1` [Example 51A, 6-(1-{6-[(2,2-dimethyl-1,3-dioxan-5-yl)methoxy]-1,3-benzoxazol-2-yl}azetidin-3-yl)-3-[(1-methyl-1H-pyrazol-4-yl)amino]pyrazine-2-carboxamide], the results for the IC50 on human MER (528-end), at human AXL (473-end) and at TYRO3 (455-end) were 2 nM, 17 nM and 2380 nM, respectively.

Take `Cn1cc(Nc2ncc(C3CN(c4nc5ccc(C6=CCCC6)cc5o4)C3)nc2C(N)=O)cn1` [Example 10A, 6-{1-[6-(cyclopent-1-en-1-yl)-1,3-benzoxazol-2-yl]azetidin-3-yl}-3-[(1-methyl-1H-pyrazol-4-yl)amino]pyrazine-2-carboxamide]: the half-inhibitory concentration (IC50) at human MER (528-end) came out at 3 nM; at human AXL (473-end), 4 nM; on TYRO3 (455-end), 690 nM.

As to `Cn1cc(Nc2ncc(C3CN(c4nc5ccc(OCC(=O)C6CC6)cc5o4)C3)nc2C(N)=O)cn1` [Example 87, 6-{1-[6-(2-cyclopropyl-2-oxoethoxy)-1,3-benzoxazol-2-yl]azetidin-3-yl}-3-[(1-methyl-1H-pyrazol-4-yl)amino]pyrazine-2-carboxamide], the results for the IC50 at human MER (528-end), at human AXL (473-end) and on TYRO3 (455-end) were 1 nM, 5 nM and 330 nM, respectively.

For `Cn1cc(Nc2ncc(C3CN(c4nc5ccc(OCC6(O)COC6)cc5o4)C3)nc2C(N)=O)cn1` [Example 57, 6-(1-{6-[(3-hydroxyoxetan-3-yl)methoxy]-1,3-benzoxazol-2-yl}azetidin-3-yl)-3-[(1-methyl-1H-pyrazol-4-yl)amino]pyrazine-2-carboxamide], the values for the IC50 on human MER (528-end), at human AXL (473-end) and at TYRO3 (455-end) were 7 nM, 8 nM and 2310 nM, respectively.

`Cc1ccc2nc(N3CC(c4ccc(Nc5cnn(C)c5)c(C(N)=O)n4)C3)oc2c1` [Example 78, 6-[1-(6-methyl-1,3-benzoxazol-2-yl)azetidin-3-yl]-3-[(1-methyl-1H-pyrazol-4-yl)amino]pyridine-2-carboxamide]: the figures for the IC50 on human MER (528-end), on human AXL (473-end) and on TYRO3 (455-end) were 2 nM, 6 nM and 270 nM, respectively.

For `Cn1cc(Nc2ncc(C3CN(c4nc5ccc(OCC(=O)N6CCCC6)cc5o4)C3)nc2C(N)=O)cn1` [Example 49, 3-[(1-methyl-1H-pyrazol-4-yl)amino]-6-(1-{6-[2-oxo-2-(pyrrolidin-1-yl)ethoxy]-1,3-benzoxazol-2-yl}azetidin-3-yl)pyrazine-2-carboxamide], the IC50 stood at 4 nM at human MER (528-end), 11 nM at human AXL (473-end) and 2030 nM on TYRO3 (455-end).

In the case of `NC(=O)c1nc(C2CN(c3nc4ccc(F)cc4o3)C2)cnc1Nc1cnn(C2CCOCC2)c1` [Example 27, 6-[1-(6-fluoro-1,3-benzoxazol-2-yl)azetidin-3-yl]-3-{[1-(oxan-4-yl)-1H-pyrazol-4-yl]amino}pyrazine-2-carboxamide], the IC50 on human MER (528-end) is 1 nM; on human AXL (473-end), 3 nM; at TYRO3 (455-end) it was 82 nM.

For `Cn1cc(Nc2ncc(C3CN(c4nc5ccc(C(=O)O)cc5o4)C3)nc2C(N)=O)cn1` [Example 18A, 2-(3-f{6-carbamoyl-5-[(1-methyl-1H-pyrazol-4-yl)amino]pyrazin-2-yl}azetidin-1-yl)-1,3-benzoxazole-6-carboxylic acid], the IC50 at human MER (528-end) is 3710 nM; at human AXL (473-end), 5900 nM; at TYRO3 (455-end) it was more than 12500 nM.

On to `NC(=O)c1nc(C2CN(c3nc4ccccc4o3)C2)cnc1Nc1cn[nH]c1` [Example 14, 6-[1-(1,3-benzoxazol-2-yl)azetidin-3-yl]-3-[(1H-pyrazol-4-yl)amino]pyrazine-2-carboxamide], for which the concentration for half-maximal inhibition (IC50) on human MER (528-end) was found to be 8 nM; on human AXL (473-end), 14 nM; on TYRO3 (455-end), 490 nM.

Regarding `CCOC(=O)C(C)(C)c1ccc2nc(N3CC(c4cnc(Nc5cnn(C)c5)c(C(N)=O)n4)C3)oc2c1` [Example 111F, ethyl 2-[2-(3-{6-carbamoyl-5-[(1-methyl-1H-pyrazol-4-yl)amino]pyrazin-2-yl}azetidin-1-yl)-1,3-benzoxazol-6-yl]-2-methylpropanoate], the IC50 at human MER (528-end) was 18 nM; at human AXL (473-end), 43 nM; on TYRO3 (455-end), 3230 nM.

On to `Cn1cc(Nc2ncc(C3CN(c4nc5ccc(C(F)(F)F)cc5o4)C3)nc2C(N)=O)cn1` [Example 12, 3-[(1-methyl-1H-pyrazol-4-yl)amino]-6-{1-[6-(trifluoromethyl)-1,3-benzoxazol-2-yl]azetidin-3-yl}pyrazine-2-carboxamide], for which the IC50 on human MER (528-end) was 1 nM; at human AXL (473-end), 4 nM; at TYRO3 (455-end), 220 nM.

In the case of `Cn1cc(Nc2ncc(C3CN(c4nc5ccc(OCCO)cc5o4)C3)nc2C(N)=O)cn1` [Example 40, 6-{1-[6-(2-hydroxyethoxy)-1,3-benzoxazol-2-yl]azetidin-3-yl}-3-[(1-methyl-1H-pyrazol-4-yl)amino]pyrazine-2-carboxamide], the IC50 at human MER (528-end) stood at 2 nM; at human AXL (473-end), 8 nM; on TYRO3 (455-end), 460 nM.

For the origin of these results see US20260232658A1, “AZETIDINYL BENZOXAZOLE COMPOUNDS AND THEIR USE AS MER AND AXL INHIBITORS” (DONG-A ST CO., LTD., priority 2022, published 2026).
